{
  "source": "paper PMC8670521",
  "about": "“Identification and characterization of an atypical Gαs-biased β2AR agonist that fails to evoke airway smooth muscle cell tachyphylaxis” (Proceedings of the National Academy of Sciences of the …, 2021)",
  "key": {"[1]": {"molecular_target": "T1, human β2AR (β2-adrenergic receptor) (Homo sapiens, UniProt P07550)", "T1 construct": "gene ADRB2; full-length receptor cDNA stably expressed in CHW-1102 (CHW-β2) cells, ~2,000 fmol/mg", "T1 sequence (P07550 whole entry)": "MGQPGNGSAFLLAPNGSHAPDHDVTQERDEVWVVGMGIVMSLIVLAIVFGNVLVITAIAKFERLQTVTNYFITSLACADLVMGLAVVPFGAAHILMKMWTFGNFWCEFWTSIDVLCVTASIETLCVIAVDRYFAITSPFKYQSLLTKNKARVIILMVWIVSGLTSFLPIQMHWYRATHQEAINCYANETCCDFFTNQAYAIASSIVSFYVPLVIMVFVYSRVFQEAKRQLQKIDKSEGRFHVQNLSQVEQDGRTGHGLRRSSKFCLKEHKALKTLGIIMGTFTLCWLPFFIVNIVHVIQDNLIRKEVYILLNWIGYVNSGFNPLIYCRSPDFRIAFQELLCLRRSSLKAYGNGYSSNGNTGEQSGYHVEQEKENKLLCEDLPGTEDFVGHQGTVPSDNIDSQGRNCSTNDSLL", "test": "cAMP accumulation, competitive immunoassay", "assay_type": "cell-based", "from_the_text": "cAMP accumulation, competitive immunoassay on human β2AR (β2-adrenergic receptor)"}, "[2]": {"molecular_target": "T2, β2AR tagged at its carboxyl terminus (PathHunter ECA) (Homo sapiens, UniProt P07550)", "T2 construct": "gene ADRB2; C-terminal complementary β-galactosidase fragment tag; DiscoverX PathHunter CHO cells co-expressing β-arrestin2 fused to fragment-deficient β-galactosidase (read-out)", "T2 sequence (P07550 whole entry, the tested form may be a part)": "as the sequence (P07550 whole entry) above", "test": "β-arrestin2 recruitment, PathHunter enzyme complementation", "assay_type": "cell-based", "conditions": "[…] min, […] °C, CHO cells"}, "[3]": {"conditions": "agonist, […] min, […] °C, IBMX […], whole CHW-β[…] cells"}},
  "note": "Read-outs that look alike come from different tables or passages of the source.",
  "data": [
    {"smiles": "CC(C)CC1=N[C@@H](CCCCN2C[C@H](Cc3ccc(O)cc3)N(CCCCC3CCCCC3)C2=O)CN1", "note": "[C4-S]", "values": [
      {"measurement": "EC50", "setting": "[1]; [3]", "result": "3.52 ± 0.52", "unit": "µM"}
    ]},
    {"smiles": "COc1ccc(CC2=N[C@@H](CCCCN3C[C@H](Cc4ccc(O)cc4)N(CCCCC4CCCCC4)C3=O)CN2)cc1OC", "note": "[C2-S]", "values": [
      {"measurement": "EC50", "setting": "[1]; [3]", "result": "6.67 ± 2.01", "unit": "µM"}
    ]},
    {"smiles": "COc1ccc(CC2=N[C@@H](CCCCN3C[C@H](Cc4ccc(O)cc4)N(CCCCC4CCCCC4)C3=O)CN2)cc1", "note": "[C1-S]", "values": [
      {"measurement": "EC50", "setting": "[1]", "result": "4.23 ± 1", "unit": "µM"},
      {"measurement": "β-arrestin2 recruitment, PathHunter enzyme complementation", "setting": "[2]", "result": "lack of a response to C1-S in the β-arrestin ECA"}
    ]},
    {"smiles": "CCOc1ccc(CC2=N[C@@H](CCCCN3C[C@H](Cc4ccc(O)cc4)N(CCCCC4CCCCC4)C3=O)CN2)cc1", "note": "[C3-S]", "values": [
      {"measurement": "EC50", "setting": "[1]; [3]", "result": "4.31 ± 1.69", "unit": "µM"}
    ]}
  ]
}
